Test results published in patent US7166695B2, “Affinity markers for human serum albumin” (ConjuChem Biotechnologies Inc., priority 1997, dated 2007).
Blank lines part the entries; values can stand above or below the compound they belong to. Where a SMILES comes first, the peptide text is derived from it. [ ]: non-standard residue; d: D form. The star is where a group is joined. X1 = O=C1N[C@H]2[C@H](CS[C@H]2CCCCC(=O)Oc2ccc(C(=O)*)cc2)N1; Benzoyl(4-OH) = O=C(c1ccc(O)cc1)*

Tests used:
[1] = biological target: T1, pig albumin (Sus scrofa, UniProt P08835); assay: Biotinylation of whole blood; SDS-PAGE and immunoblot with peroxidase labeled streptavidin; type: biochemical; details: samples of whole blood
T1 construct: Whole blood was incubated with biotin ester for 1 h at room temperature, then plasma was extracted by centrifugation; from tissue; host or cells: pig whole blood
T1 sequence (P08835 25-607): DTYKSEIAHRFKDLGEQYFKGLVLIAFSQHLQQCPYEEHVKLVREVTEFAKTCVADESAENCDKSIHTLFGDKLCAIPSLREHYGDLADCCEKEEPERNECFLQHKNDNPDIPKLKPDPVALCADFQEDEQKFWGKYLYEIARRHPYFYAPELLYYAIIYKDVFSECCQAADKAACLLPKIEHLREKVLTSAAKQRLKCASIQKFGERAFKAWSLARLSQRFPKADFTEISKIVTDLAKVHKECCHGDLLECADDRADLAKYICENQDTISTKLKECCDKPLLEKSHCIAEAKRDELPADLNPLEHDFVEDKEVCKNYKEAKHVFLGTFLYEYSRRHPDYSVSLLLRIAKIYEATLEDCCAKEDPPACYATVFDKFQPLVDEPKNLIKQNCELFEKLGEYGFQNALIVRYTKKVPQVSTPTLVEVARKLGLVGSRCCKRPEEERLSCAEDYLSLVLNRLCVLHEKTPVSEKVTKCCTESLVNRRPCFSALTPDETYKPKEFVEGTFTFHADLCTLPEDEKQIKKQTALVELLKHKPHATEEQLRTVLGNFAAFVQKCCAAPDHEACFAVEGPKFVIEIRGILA

[2] = Hydrolysis in PBS followed by HPLC; type: physicochemical; details: pH 7.4, RT (FIG. 13), read-out: half-life of hydrolysis of the phenol ester (converted)
Description: (§1) The chromatograms were each integrated using identical data parameters and resulting calculated areas under each peak converted to concentrations and plotted against time.

[3] = biological target: T2, HSA (Homo sapiens, UniProt P02768); assay: Kinetic study by ELISA capture in human plasma; type: biochemical; details: 100 μM in human plasma, RT, 0-60 min
Method: The samples were then allowed to incubate at RT for 0, 5, 10, 15, 30 and 60 min, when 5 μL of each sample was diluted with 295 μL PBS and kept at −20° C. before use. The samples were then diluted to 2 μg/mL using PBS and transferred to an ELISA plate previously coated with polyclonal anti-human serum albumin (procedure described above). The plates were then rinsed with PBS-Tween 20 (0.05%) three times, and then with PBS. Goat polyclonal anti-biotin (Pierce) (1:200, v/v, in PBS containing 0.05% BSA) was then added to the plates, allowed to incubate for 1 h at RT, rinsed with PBS-Tween 20 (0.05%) three times, and then with PBS. The plates were then treated with 100 μL of peroxidase-conjugated rabbit anti-goat IgG (Jackson Immuno Research) diluted 1/100,000 with PBS for 20 min at RT. The plates were then rinsed with PBS-Tween 20 (0.05%) three times, and then with PBS. […] The plates were then read on a SpectraMax 250 at λ 490 nm.
At each time mentioned in the figure, 2 μg/mL of each sample was captured on an ELISA plate initially coated with polyclonal anti-HSA, treated with goat polyclonal anti-biotin, followed by peroxidase conjugated rabbit anti-goat IgG and OD read at 490 nm using SpectraMax 250.

[4] = biological target: T3, fraction V HSA (Homo sapiens, UniProt P02768); assay: Kinetic studies using HPLC, reaction with fraction V HSA in PBS; type: biochemical; details: 100 μM compound and 600 μM HSA in PBS
T3 construct: purchased Calbiochem
Description: as §1
FIG. 11 plots the rate of disappearance of biotin-OPh-CO—NH2 vs. time and the rate of appearance of the leaving group, HO-Ph-CO—NH2, vs. time.
Due to overlapping peaks in the HPLC chromatogram, the rate of disappearance of biotin-OPh-CO-FlYEE-NH2 cannot be determined.

[5] = system: commercial human plasma; assay: Kinetic studies using HPLC, reaction in commercial human plasma; type: biochemical; details: 100 μM in commercial human plasma
Method: as §1
FIG. 12 plots the rate of appearance of the leaving group, HO-Ph-CO-FlYEE-NH2, vs. time (seconds) as a result of the reaction of 100 μM biotin-OPh-CO-FlYEE-NH2 in commercial human plasma. Due to overlapping peaks in the HPLC chromatogram, the rate of disappearance of biotin-OPh-CO-FlYEE-NH2 cannot be determined.

[6] = biological target: T4, dog albumin (Canis lupus familiaris, UniProt P49822); assay: Biotinylation of whole blood; SDS-PAGE and immunoblot with peroxidase labeled streptavidin; type: biochemical; details: samples of whole blood
T4 construct: Whole blood was incubated with biotin ester for 1 h at room temperature, then plasma was extracted by centrifugation; from tissue; host or cells: dog whole blood
T4 sequence (P49822 25-608): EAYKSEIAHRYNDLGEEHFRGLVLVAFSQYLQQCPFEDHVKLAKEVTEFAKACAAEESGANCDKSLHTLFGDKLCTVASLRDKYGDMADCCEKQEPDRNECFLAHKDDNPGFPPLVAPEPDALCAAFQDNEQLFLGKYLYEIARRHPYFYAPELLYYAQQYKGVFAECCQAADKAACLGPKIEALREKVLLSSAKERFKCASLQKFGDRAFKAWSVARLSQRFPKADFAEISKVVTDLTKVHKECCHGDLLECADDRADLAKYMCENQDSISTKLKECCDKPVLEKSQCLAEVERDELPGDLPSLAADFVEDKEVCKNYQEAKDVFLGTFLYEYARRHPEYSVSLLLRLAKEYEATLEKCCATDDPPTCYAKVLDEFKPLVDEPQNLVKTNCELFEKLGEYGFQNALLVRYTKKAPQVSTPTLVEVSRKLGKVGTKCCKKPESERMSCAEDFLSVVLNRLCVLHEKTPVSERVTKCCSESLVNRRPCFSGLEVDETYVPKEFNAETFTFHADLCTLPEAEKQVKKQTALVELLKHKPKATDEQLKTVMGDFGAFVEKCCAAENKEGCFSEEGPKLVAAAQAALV

[7] = biological target: T3, fraction V HSA; assay: Competition ELISA test; type: binding
Method: A solution of 100 μL rabbit polyclonal anti-human serum albumin. (Boehringer) diluted at 1/5000 in PBS was coated overnight at 4° C. onto ELISA plates (Nunc). These plates were then saturated with 5% BSA (Sigma) in PBS for 2 h at RT. For the competition test, varying concentrations of HO-Ph-CO-FlYEE-NH2, 44 μM biotin-OPh-CO-FlYEE-NH2, and 15 μM of fraction V HSA were incubated for 1 h at 37° C. To assess the ability of biotin-OPh-CO-FlYEE-NH2 to displace HO-Ph-CO-FlYEE-NH2, varying concentrations of HO-Ph-CO-FlYEE-NH2 were incubated with HSA for 1 h at 37° C., then 44 μM of biotin-OPh-CO-FlYEE-NH2 was added and allowed to incubate at 37° C. for 1 h. The reaction mixtures were then centrifuged through 30 kDa Centricon tubes (Sarthorious) to a volume of 50 μL, diluted with 500 μL of PBS, then re-concentrated to 50 μL. This process was then repeated and transferred to the ELISA plate previously coated with polyclonal anti-human serum albumin (procedure described above). These plates were then rinsed with PBS-Tween 20 (0.05%) three times, then with PBS. Peroxidase-labeled streptavidin (1:500, v/v, in PBS containing 0.05% BSA) was then added to the plates, allowed to incubate for 20 min at RT, rinsed with PBS-Tween 20 (0.05%) three times, and then with PBS. […] The plates were then read on a SpectraMax 250 at λ 490 nm.
FIG. 8 plots optical density as a function of the concentration of HO-Ph-CO-FlYEE-NH2. […] The HSA was captured on an ELISA plate initially coated with polyclonal anti-HSA, treated with peroxidase labeled streptavidin and OD read at 490 nm using SpectraMax 250.
In these experiments, solutions of 0 to 50 molar excess HO-Ph-CO-FlYEE-NH2 and 15 μM fraction V HSA were incubated for 1 h at RT when 44 μM of biotin-OPh-CO-FlYEE-NH2, was added and reaction incubated for 1 h at 37° C. The HSA was captured on an ELISA plate initially coated with polyclonal anti-HSA, treated with peroxidase labeled streptavidin and OD read at 490 nm using SpectraMax 250.

[8] = biological target: T2, HSA; assay: Mass spectral analysis of tryptic digest of HSA:LC-biotin; details: HPLC peaks at 78 and 85 min
Method: LC-biotin is biotin-NH—(CH2)5—C(O)—.
The specificity with which biotin-OPh-CO-FlYEE-NH2 reacts with a specific lysine residue on HSA was determined by mass spectral analysis of a tryptic digest of LC-biotin conjugated to HSA by LC-biotin-OPh-CO-FlYEE-NH2 (FIG. 15). Using LC -biotin-OPh-CO-FlYEE-NH2 instead of biotin-OPh-CO-FlYEE-NH2 facilitated a larger mass separation in the mass spectrum and identification of HSA from HSA:LC-biotin. […] This mass accounts only for the addition of one LC-biotin and since the fragment at 78 min contains only one Lys residue and LC-biotin is attached to it, and this peptide sequence contains the previous sequence, the only lysine residue in this sequence where biotin could be attached is Lys519.

[9] = biological target: human serum albumin (HSA) (Homo sapiens, UniProt P02768); assay: Biotinylation of whole blood, plasma or serum; SDS-PAGE and immunoblot with peroxidase labeled streptavidin; details: 100 or 600 μM, 1 h at 37° C.
Method: The reaction samples were allowed to incubate for 1 h at RT or 37° C. For the whole blood sample, the plasma was extracted from whole blood at the end of reaction. […] These additional samples were diluted 1/60 in PBS and analyzed directly on SDS-PAGE, immunoblot, ELISA, or frozen at −20° C. until use. As positive controls, 50 μM of NHS-LC-biotin (Pierce) and 100 μM of D-biotin were used. Protein assay was performed using BCA kit (Pierce).
Proteins were separated by SDS-PAGE under non-reducing conditions (Laemmli, 1970), transferred to 0.1 μM-pore nitrocellulose sheets (Schleicher and Schuell) and probed with peroxidase labeled streptavidin (Jackson Immuno Research).
Whole blood was incubated with biotin ester for 1 h at room temperature, then plasma was extracted by centrifugation. A 5 μg sample was separated by 8% SDS-PAGE and transferred onto blot. The immunoblot was blocked with 5% skim milk (Nestle) and then incubated with peroxidase labeled-streptavidin diluted at 1/5000 in PBS-BSA 0.5% for 20 min at RT. An ECL kit was used to detect peroxidase labeled-streptavidin on Hyperfilm ECL (Amersham), exposed for 1 min.
A 5 μg portion of each sample was separated by 8% SDS-PAGE and transferred onto blot. The immunoblot was blocked with 5% skim milk (Nestle) and then incubated with peroxidase labeled-streptavidin diluted at 1/5000 in PBS-BSA 0.5% for 20 min at RT. […]

specificity of labeling for pig albumin (immunoblot) [1]: not for pig or dog albumin
half-life [2]: ~173 h
rate of biotin addition (optical density vs time, FIG. 10) [3]: accelerated rate of biotin addition
half-reaction [4]: about 125 min
specificity of labeling for dog albumin (immunoblot) [6]: not for pig or dog albumin
Compound: CC(C)C[C@@H](NC(=O)[C@H](Cc1ccccc1)NC(=O)c1ccc(OC(=O)CCCC[C@@H]2SC[C@@H]3NC(=O)N[C@@H]32)cc1)C(=O)N[C@@H](Cc1ccc(O)cc1)C(=O)N[C@@H](CCC(=O)O)C(=O)N[C@@H](CCC(=O)O)C(N)=O [biotin-OPh-CO-FlYEE-NH2] (X1-F[dL]YEE-NH2)
half-reaction [5]: about 6 min
portion reacted with protein target ([5]; after five minutes (FIG. 12)): more than half

direct competition with biotin-OPh-CO-FlYEE-NH2 for HSA (FIG. 8) ([7]; 0-100 molar excess, 44 μM biotin-OPh-CO-FlYEE-NH2, 15 μM HSA, 1 h at 37° C.): occupies a specific binding site on HSA
Compound: HO-Ph-CO-FlYEE-NH2 ({Benzoyl(4-OH)}-F[dL]YEE-NH2) [leaving group liberated from biotin-OPh-CO-FlYEE-NH2]
effect of prior incubation with HSA on binding of biotin-OPh-CO-FlYEE-NH2 (FIG. 9) ([7]; 0 to 50 molar excess incubated with 15 μM HSA for 1 h, then 44 μM biotin-OPh-CO-FlYEE-NH2 1 h at 37° C.): prevents binding of biotin-OPh-CO-FlYEE-NH2
effect of competition on rate of reaction ([7]; between 1 to 5 molar excess of HO-Ph-CO-FlYEE-NH2): very minor effect on the rate of reaction

Compound: LC-biotin-OPh-CO-FlYEE-NH2
lysine residue of HSA where LC-biotin is attached [8]: Lys519

Compound: biotin-OPh-CO—NH2 [reference compound]
rate of biotin addition (optical density vs time, FIG. 10) [3]: on the base line
half-reaction [4]: about 330 min
selectivity of labeling (immunoblot, FIG. 7) [9]: does not label selectively
